Laboratory results: US12522618B2, “Copper complexes for treatment of neurodegenerative disorders” (ALS Therapy Development Institute, priority 2020, dated 2026)

Columns and labels:
[1] = test system: SOD1^G93A mice; assay: Disease onset (neuroscore NS2) and survival (NS4) in SOD1^G93A mice; type: in vivo, mouse; conditions: for Effect on disease onset / Effect on survival: male SOD1^G93A mice, 10 mg/kg or 30 mg/kg daily oral gavage, vs vehicle
Description: The SOD1^G93A transgenic mouse model of ALS has been the most widely used animal model since the 1990s. The mouse was genetically engineered to overexpress a mutant form of the human Cu/Zn superoxide dismutase 1 (SOD1) gene harboring an ALS-associated glycine to alanine mutation at amino acid position 93 (G93A). These mice replicate many of the features of ALS, such as motor neuron loss, muscle wasting, progressive paralysis and decreased survival. Additionally, the SOD1^G93A mouse model has shown to be ideal for drug screening because of early onset of the disease and moderate progression.
The mice were treated with vehicle, 10 mg/kg or 30 mg/kg CuATSM or one of the derivatives: Compound 25 (2% DMSO, 10% KolliphorHS15), Compound 9 (0.5% methylcellulose), Compound 24 (0.5% methylcellulose, 0.4% TWEEN-80), and Compound 37 (0.5% methylcellulose, 0.4% TWEEN-80). Measurements were taken to assess compound muscle action potential (CMAP), neuroscore, and disease onset and survival.
Neuroscore is a neurological scoring system based on visual observations of the hindlimb designed to assess the neuromuscular function of SOD1^G93A mice. The hindlimb is observed due to this being the earliest reported neurological sign of disease in SOD1^G93A mice. This method provides an unbiased assessment of onset of paresis (slight or partial paralysis) and the progression and severity of the paralysis. This method has also proven to be sensitive enough to identify drug-induced changes in disease progression. Neuroscore is assigned on a 0-4 scale corresponding to the following observations: NS0=the hindlimbs present with a normal splay; NS1=hindlimbs present with an abnormal splay; NS2=the hindlimbs show signs of paresis or are partially paralyzed; NS3=rigid paralysis in the hindlimbs; NS4=the mouse is unable to right itself up. These measurements were used in the current study to assess disease onset.
The onset of disease in the SOD1^G93A mice typically happens around age day 90-100, with mice eventually succumbing to the disease around age day 120-130. For comparison, a wild-type mouse of the same background may live up to 2 years. The onset of the disease in the current study was defined as the time to observe a neuroscore of NS2 in the mouse, while a neuroscore of a NS4 was considered to be the humane end-point. Reported p-values to illustrate statistical significant represent a log-rank test.

[2] = test system: SOD1^G93A mice; assay: Compound muscle action potential (CMAP) in SOD1^G93A mice; type: in vivo, mouse
[3] = test system: transgenic mouse models of ALS; conditions: transgenic mice expressing human SOD1 with familial ALS mutations; cited from earlier work
[4] = male SOD1^G93A mice, 10 mg/kg or 30 mg/kg daily, four weeks, vs vehicle

## CN/C1=N/N=C(c2ccco2)/C(C)=N/N=C(/NC)[S][Cu][S]1 [Compound 25]
[1]; litter-matched, gender-balanced SOD1^G93A mice, chronic daily 30 mg/kg, vs control
  Survival efficacy study (onset of neurological disease, survival, body weight, neurological score): displayed benefits
[2]; SOD1^G93A mice, 10 mg/kg or 30 mg/kg daily oral gavage, 5 weeks, vs vehicle
  CMAP as a percentage of baseline: significantly less change than the mice receiving vehicle
[2]; SOD1^G93A mice, 10 mg/kg or 30 mg/kg daily oral gavage, five weeks, vs control
  CMAP change from baseline: significant change in CMAP measurements from baseline compared to control mice

## CN=C([S-])N/N=C(C)/C(C)=N/NC([S-])=NC.[Cu+2] [CuATSM, reference compound]
[3]
  Protection in transgenic mouse models of ALS: protective
[2]; [4]
  CMAP change from baseline: no differences
  percent of baseline CMAP: no differences

## CN/C1=N/N=C(C)/C(Cc2cccnc2)=N/N=C(/NC)[S][Cu][S]1 [Compound 9]
[1]
  Effect on disease onset: did not significantly affect
  Effect on survival: did not significantly affect

## CCN/C1=N/N=C(c2ccc(CN3CCN(C)CC3)o2)/C(C)=N/N=C(/NCC)[S][Cu][S]1 [Compound 37]
[1]
  Effect on disease onset: neither dose significantly affected
  Effect on survival: neither dose significantly affected
[2]; male SOD1^G93A mice, 10 mg/kg or 30 mg/kg daily oral gavage, four weeks
  CMAP decline: did not attenuate the CMAP decline

## CCN/C1=N/N=C(c2ccc(CN3CCOCC3)o2)/C(C)=N/N=C(/NCC)[S][Cu][S]1 [Compound 24]
[2]; male SOD1^G93A mice, 10 mg/kg or 30 mg/kg daily oral gavage, five weeks, vs control
  CMAP values (change from baseline, % of baseline): did not significantly improve CMAP values
